The record followed here is publication PMC6271376 (Molecules, 2013).

Series [1] in a line: Pharmacokinetic study in rats following intravenous administration. The following applies: Sprague-Dawley, rat, plasma. It is filed as in vivo. Here is the method: Male SD rats weighing from 210 to 240 g were used for the PK study. All animal experiments were performed in accordance with institutional guidelines and were approved by the University Committee on Use and Care of Animals, Shenyang Pharmaceutical University. […] Serial blood samples (0.2 mL) were obtained at 0.08, 0.17, 0.25, 0.5, 0.75, 1, 1.5, 2, 3, 4, 6, 8, 10 and 12 h after intravenous administration. All samples were placed into heparinised tubes. The rat plasma samples were centrifuged at 13,000 rpm for 10 min, and the plasma supernatant was collected. THU was added to the plasma supernatant at a final concentration of 100 µM. The plasma was frozen at −80 °C until analysis.

A short description of series [2]: Stability of azacitidine in rat plasma exposed to various storage conditions. The following applies: for Concentration found: n = 3.
Experimental: The selectivity was assessed by comparing the chromatograms of six different batches of blank rat plasma with the corresponding spiked rat plasma. […] The linearity was assessed by weighted (1/x^2) least-squares analysis of six different calibration curves. The LLOQ of the assay was the lowest concentration of the analyte with the recommended precision and accuracy less than 20%. The intra- and inter-day precision (the relative standard deviation, RSD) and accuracy (the relative error, RE) were determined by the analysis of low, medium, and high QC samples (n = 6) on 3 different days. The stability of the QC samples (n = 3) in three complete freeze/thaw cycles (−80 to 20 °C), long-term sample storage (−80 °C for 30 days) and on the bench top (20 °C for 2 h) was assessed. The ready-for-injection stability of the extracted samples in the autosampler rack at 4 °C for 24 h was also evaluated. The analytes were considered stable when the accuracy bias was within ± 20% of the nominal concentration.
The mark [3] stands for this setting: male SD rats, 2.5 mg/kg, mean ± SD, n = 3.

`Nc1ncn([C@@H]2O[C@H](CO)[C@@H](O)[C@H]2O)c(=O)n1` [Azacitidine]: the half-life in series [1] (male SD rats, single dose 2.5 mg/kg, mean ± SD, n = 3, read-out: t1/2β (elimination half-life) (converted)) was 30.4 ± 11.9 min. The same molecule yielded a Vd in series [1] (setting [3]) of 2.07 ± 0.17 L/kg. In series [1] (setting [3]), this molecule showed a clearance of 20.9 mL/min/kg. In addition, the AUC(0-inf) in series [1] (male, SD rats, single dose 2.5 mg/kg) amounted to 2000 ng·h/mL. Further, the Concentration found is 23.8 ng/mL in series [2] (extracted rat plasma samples, sample rack for 24 h at 4 °C, added 20 ng/mL); 9,966.3 ng/mL in series [2] (extracted rat plasma samples, sample rack for 24 h at 4 °C, added 10,000 ng/mL); 24.0 ng/mL in series [2] (rat plasma, Ambient, 2 h, added 20 ng/mL); 10,388.5 ng/mL in series [2] (rat plasma, Ambient, 2 h, added 10,000 ng/mL); 24.0 ng/mL in series [2] (rat plasma, three freeze–thaw cycles, added 20 ng/mL); 10,073.4 ng/mL in series [2] (rat plasma, three freeze–thaw cycles, added 10,000 ng/mL). Besides, the Concentration found in series [2] (rat plasma, −80 °C, 30 days, added 20 ng/mL) is listed as 24.0 ng/mL; in series [2] (rat plasma, −80 °C, 30 days, added 10,000 ng/mL), 9,519.1 ng/mL. Further, the “Stability (change in azacitidine concentrations)” value in series [2] (rat plasma, all storage conditions of Table 3) was “No significant changes”.

One may read the Vd as a proportionality between amount in the body and measured concentration, not a real space. Low values mean little distribution into tissue, high ones wide distribution into tissue. By clearance is commonly meant a measure of how efficiently the substance is removed, as volume per time. Read a high clearance as efficient removal. As usually defined, the AUC(0-inf) is the area under the concentration-time curve extrapolated to infinity. A lower AUC(0-inf) goes with low exposure.
